Reference: ChEMBL document CHEMBL3352146, “Cytotoxic aaptamine derivatives from the South China Sea sponge Aaptos aaptos” (J Nat Prod, 2014)

How the values were obtained:
[1] = Cytotoxicity against human HL60 cells after 48 hrs by trypan blue exclusion method; assay type: functional, cell-based; conditions: HL-60, 48 h
K562 = test: Cytotoxicity against human K562 cells after 48 hrs by trypan blue exclusion method; assay type: functional, cell-based; conditions: K562, 48 h
KB = test: Cytotoxicity against human KB cells after 72 hrs by methylene blue assay
MCF7 = test: Cytotoxicity against human MCF7 cells after 72 hrs by methylene blue assay; conditions: MCF7, 72 h
HepG2 = test: Cytotoxicity against human HepG2 cells after 72 hrs by methylene blue assay; conditions: HepG2, 72 h
HT-29 = test: Cytotoxicity against human HT-29 cells after 72 hrs by methylene blue assay; conditions: HT-29, 72 h

SMILES	IC50 [1]	IC50 (K562)	IC50 (KB)	IC50 (MCF7)	IC50 (HepG2)	IC50 (HT-29)
COc1cc2ccn3c(CC(C)C)nc4c(=O)[nH]c(c1OC)c2c43	> 10 mg/L	> 10 mg/L	> 10 mg/L	> 10 mg/L	> 10 mg/L	> 10 mg/L
CNc1cnc2c3c(ccnc13)C=C(OC)C2=O	> 10 mg/L	> 10 mg/L	> 10 mg/L	> 10 mg/L	> 10 mg/L	> 10 mg/L
CCOC1=Nc2c(N)c(OC)cc3ccnc(c23)C1=O	0.11 µM	0.22 µM	0.66 µM	1.2 µM	0.6 µM	6.6 µM
COc1cc2ccn3c(C(C)C)nc4c(=O)[nH]c(c1OC)c2c43	> 10 mg/L	> 10 mg/L	> 10 mg/L	> 10 mg/L	> 10 mg/L	> 10 mg/L
COC1=Cc2ccnc3c(NCC(C)C)cnc(c23)C1=O	0.28 µM	0.46 µM	1.1 µM	2.3 µM	1 µM	8.5 µM
CCC(C)c1nc2c(=O)[nH]c3c(OC)c(OC)cc4ccn1c2c43 (configuration not stated)	> 10 mg/L	> 10 mg/L	> 10 mg/L	> 10 mg/L	> 10 mg/L	> 10 mg/L
COC1=Cc2ccnc3c(NCCc4ccccc4)cnc(c23)C1=O	0.03 µM	0.09 µM	0.12 µM	0.4 µM	0.2 µM	2.2 µM
CCC(C)CNc1cnc2c3c(ccnc13)C=C(OC)C2=O (configuration not stated)	> 10 mg/L	> 10 mg/L	> 10 mg/L	> 10 mg/L	> 10 mg/L	> 10 mg/L
CC(=O)O[C@H]1C(=O)[C@@]2(C)[C@H]([C@H](OC(=O)c3ccccc3)[C@]3(O)C[C@H](OC(=O)[C@H](O)[C@@H](NC(=O)c4ccccc4)c4ccccc4)C(C)=C1C3(C)C)[C@]1(OC(C)=O)CO[C@@H]1C[C@@H]2O [PACLITAXEL]	0.0015 µM	0.0024 µM	–	0.0032 µM	0.0027 µM	0.0035 µM
COC1=Cc2ccnc3c(NCCC(C)C)cnc(c23)C1=O	0.03 µM	0.09 µM	0.11 µM	0.44 µM	0.17 µM	1.8 µM
CCOC(=O)CCCNc1cnc2c3c(ccnc13)C=C(OC)C2=O	> 10 mg/L	> 10 mg/L	> 10 mg/L	> 10 mg/L	> 10 mg/L	> 10 mg/L
COC1=Cc2ccnc3c4c(nc(c23)C1=O)CCCN4	> 10 mg/L	> 10 mg/L	> 10 mg/L	> 10 mg/L	> 10 mg/L	> 10 mg/L
CCOc1nc2c(=O)[nH]c3c(OC)c(OC)cc4ccn1c2c43	> 10 mg/L	> 10 mg/L	> 10 mg/L	> 10 mg/L	> 10 mg/L	> 10 mg/L
